From patent US20240342121A1, “THE USE OF BETA-HYDROXYBUTYRATES FOR THE TREATMENT OR PREVENTION OF ANEURYSMS AND DISSECTIONS” (priority 2021, published 2024)
“Also recorded” adds a separate entry of the source.

Legend:
[1] = test system: angiotensin II (AII)-induced AAA; test: AII-induced AAA mouse model, post-treatment; format: in vivo
Description: To determine if senescence is a major cause of aneurysm development, the association between senescence and aneurysms using the angiotensin II (AII)-induced AAA model was investigated. Mice were infused AII for four weeks using osmotic mini-pump implantation into Apoe^−/− transgenic mouse.
To investigate the therapeutic potential of ketotherapy for abdominal aortic aneurysm (AAA), Ketogenic-diet (KD) and Ketone-ester (KE) were provided to angiotensin II (AII)-induced mouse model of AAA (FIG. 6). […] After completing AII infusion, the mice were post-treated with KD and KE for two to four weeks.
To investigate the time-dependent reduction of aorta diameter, the inner diameter of the aorta using ultrasound analysis was measured.

senescent SMCs [2] = test: Cellular viability (cytotoxicity) assay of senescent and normal SMCs; format: cell-based; conditions: premature senescence by H2O2, Arsenite or Nutlin 3a, FIG. 2A
Description: (§1) FIGS. 2A-2L. (a) Cytotoxicity assay of normal smooth muscle cells (NS) and senescent smooth muscle cells (SMCs). Replicative senescent SMCs (RS) and premature senescent SMCs, stimulated by H2O2 (HP), arsenic (Ars), and Nutlin 3a (Nut) treatment were treated with βHB, s-βHB, and ABT-737. (b) Flow cytometry analysis of apoptosis by βHB or s-βHB in radiation (10 Gy)-induced senescent SMC. (c) Quantitation of apoptotic cell and senescent cell after treating βHB and s-βHB in radiation-induced senescent SMC. (d) Representative aorta image of AII-infused mice with post-treatment of ABT-737, βHB and s-βHB. (e) External diameter of abdominal aorta infused with AII and post-treated with ABT-737 βHB and s-βHB. (f) SA-βGal activity assay of the whole aorta infused with AII, and post-treated with ABT-737, KD, or KE. (g) Quantitation of senescent area on aorta of AII-infused mice, and post-treated with KD, KE and ABT-737. (h) TUNEL assay on the abdominal aorta of AII infused mice, and treated with ABT-737, βHB, or s-βHB. SM-α Actin (SMA) and DAPI are co-stained after TUNEL reaction. […]
The clearance of senescent cells that accumulate during the aneurysm development is required to reduce the volume of aneurysm plaque. Thus, the senotherapeutic potential of βHB to reverse AAA progression was evaluated. […]

senescent SMCs [3] = test: Flow cytometry (FACS) apoptosis analysis, PI and Annexin V; format: cell-based; conditions: FIGS. 2B, 2C
Description: as §1, with “reaction. (i) Caspase 3 activity assay on normal SMCs (NC) treated with βHB, or s-βHB, and ABT-737 comparing to normal cells pretreated with Nutlin-3a. (j) Caspase 3 activity assay on senescent SMCs (SNC) treated with βHB, or s-βHB, and ABT-737 compared to senescent cells pretreated with pifithrin-α.” for “reaction.”

[4] = in vivo
Description: We established an in vivo tolerance test of βHB and s-βHB (FIGS. 9A and 9B). […] The reduction of the inner diameter of the aortic wall is also dramatic in the treatment of s-βHB in FIG. 9F (Two-way ANOVA, ^###P<0.005, n=10).

CaCl2-induced AAA [5] = test: CaCl2-induced AAA animal model, post-treatment; format: in vivo, mouse
Description: FIGS. 5A-5J. (a) Representative image of aorta which developed CaCl2)-induced AAA, and post-treated with KD, KE, βHB, s-βHB, or ABT-737. KD is provided to mice for 4 weeks, KE is administrated with drinking water, βHB, s-βHB or ABT-737 are IP injected for 2 weeks with 48h intervals. (b) Incidence of AAA by CaCl2) treatment and proportion of mice recovered from the AAA after post-treatment of KD, KE, βHB and s-βHB for 2 weeks. (c) Time-dependent observation of inner diameter after CaCl2) treatment and post-treatment of KD or KE (28˜56 days after surgery). (d) Comparison of ultrasound images of CaCl2)-induced AAA to the identical aorta post-treated with βHB for 2 weeks. (e) H&E staining of aorta from the mice developed with CaCl2)-induced AAA, and post-treated with KD, KE, βHB, and s-βHB. (f) SA β-Gal activity assay on aorta which developed CaCl2)-induced AAA, and post-treated with KD, KE, βHB, s-βHB, or ABT-737. (g) Quantitation of senescent area on aorta developed with CaCl2)-induced AAA, and post-treated with KD, KE, βHB, s-βHB. (h) Verhoeff Van Gieson/EVG staining of abdominal aorta developed with CaCl2)-induced AAA, post-treated with KD, KE, βHB and s-βHB. (i) Average number of elastic fibers on abdominal aorta presented at FIG. 5H. (j) Measurement of Pulse Wave Velocity (PWV) on CaCl2)-infused mice with post-treatment of KD, KE, βHB, and s-βHB.
To confirm the possibility that the therapeutic effect of βHB on AAA is not only applied to AII-induced AAA, the CaCl2)-induced AAA animal model was also examined as well (FIG. 5A).
To further validate the therapeutic efficacy of s-βHB on aneurysms, we used a CaCl2-induced AAA animal model as well as an angiotensin II infusion model. […] Two-way ANOVA, s-βHB vs βHB, #P<0.01, n=10. Since the elimination of senescent SMCs is critical for the recovery of AAA, we investigated that s-βHB is also effective to remove senescent cells in CaCl2)-induced aneurysms. […] Student's T-test for s-βHB vs βHB, ^#P<0.05, n=8.

[6] = test system: Oct4 overexpressed senescent SMCs; test: Oct4 overexpressed senescent SMCs (SA β-Gal, Western blot); format: cell-based; conditions: Oct4 overexpression by CRISPR-dCas9-VP64, FIG. 14A
Description: FIGS. 14A-14B show (a) SA β-Gal activity on Oct4 overexpressed SMCs with or without βHB treatment (2 days). Irradiated SMCs were infected by Lentivirus containing Crispr-dCas9-VP64_Oct4 plasmid prior to treating βHB. The arrow indicates localized senescent cell mass. (b) Western blot analysis after lentivirus (Crispr-dCas9-VP64_Oct4) infection into senescent SMCs without βHB treatment for 1 day or 2 days.
We proposed that Oct4 upregulation in senescence forms senescent spheroid-like cell mass and asymmetric configuration of aneurysms. To validate our central hypothesis, we overexpressed Oct4 in senescent SMCs using the CRISPR-dCas9-VP64 system to determine the role of Oct4. […] Localized increase of senescence may be highly associated with asymmetric dilation of aneurysms. […] We supposed that βHB prevents or reverses Oct4-induced senescence of SMCs, consequently reducing the size of aneurysms. To investigate the role of βHB in aneurysms, we assess the possibility of cellular reprogramming in senescent SMCs in the condition of Oct4 overexpression. […] In particular, a moderate increase of FAP (Fibroblast Activation Protein) provides a potential for reprogramming resulting in transdifferentiation of SMCs to myofibroblast. Recovered SM22 expression in Oct4 overexpressed senescent SMCs supposed that βHB converts the Oct4 function in dedifferentiation into a reprogramming-related role. We considered an βHB-induced epigenetic alteration of senescent cells contributing to Oct4-dependent cellular reprogramming based on this unique observation.

[7] = test system: angiotensin II (AII)-induced AAA; test: AII-induced AAA mouse model, post-treatment; format: in vivo; conditions: injection every other day for two weeks, FIG. 2E
CaCl2-induced AAA [8] = test: CaCl2-induced AAA animal model, post-treatment; format: in vivo, mouse; conditions: n=10, FIG. 5C

Which “TUNEL assay, apoptosis of senescent plaque in the aneurysm” value ([1]; FIG. 2H) does the source give for `C[C@H](O)CC(=O)O` [s-βHB, (S)-3-hydroxybutyrate] here?
Its value is “induced targeted apoptosis of senescent plaque”.

And the lesion area ([1]; FIG. 9G)?
The lesion area was “relatively more effective than βHB”.

What about the “body weight and lipids levels” value ([1]; FIGS. 9H-9J) of the same compound?
Its value is “no significant alteration”.

And the “recovery rate of aneurysms” value ([1]; compared to βHB)?
The value was “significant improvement in the recovery rate of aneurysms compared to the βHB treatment”.

And the “AAA rate after post-treating” value ([1]; incidence of AAA by angiotensin II infusion 67%, n=10, FIG. 9D)?
The value was 27%.

What about the “reduction of the inner diameter of the aortic wall” value ([1]; n=10, FIG. 9F) of the same compound?
The value was “dramatic”.

What about the “number of senescent SMCs versus normal SMCs” value (senescent SMCs [2]) of the same compound?
Its value is “selectively reduced the number of senescent SMCs and not normal SMCs; also recorded: significantly reduced”.

And the “apoptosis of senescent SMCs” value (senescent SMCs [3])?
Its value is “more effectively than βHB”.

And the half-life [4]?
Its half-life is 2 h.

What about the “recovery from CaCl2-induced AAA” value (CaCl2-induced AAA [5]; FIGS. 5A and 5B) of the same compound?
The value was “effectively reversed aneurysms”.

And the “senescent cells, SA β-gal assay” value (CaCl2-induced AAA [5]; FIGS. 5F and 5G)?
Its value is “significantly reduced senescent cells”.

What about the “localized senescence, SA β-Gal activity” value [6] of the same compound?
The value was “significantly reverses or prevents the development of localized senescence”.

And the “external diameter of the abdominal aorta” value [7]?
Its value is “significantly reduced; also recorded: strongly reduced”.

What about the “time-dependent reduction of the external diameter of the aortic wall” value (CaCl2-induced AAA [8]) of the same compound?
Its value is “more effective than βHB”.
